{"source": "patent US9549912B2", "about": "“Methods for treating atrial fibrillation” (Armetheon, Inc., priority 2009, dated 2017)", "key": {"[1]": {"assay": "Electrophysiological activity in animals: atrial refractoriness, metabolite activity", "format": "in vivo", "conditions": "in vivo"}, "[2]": {"conditions": "cited from earlier work"}, "P-glycoprotein (P-gp)": {"target": "P-glycoprotein (P-gp) (Homo sapiens, UniProt P08183)", "sequence (P08183 whole entry)": "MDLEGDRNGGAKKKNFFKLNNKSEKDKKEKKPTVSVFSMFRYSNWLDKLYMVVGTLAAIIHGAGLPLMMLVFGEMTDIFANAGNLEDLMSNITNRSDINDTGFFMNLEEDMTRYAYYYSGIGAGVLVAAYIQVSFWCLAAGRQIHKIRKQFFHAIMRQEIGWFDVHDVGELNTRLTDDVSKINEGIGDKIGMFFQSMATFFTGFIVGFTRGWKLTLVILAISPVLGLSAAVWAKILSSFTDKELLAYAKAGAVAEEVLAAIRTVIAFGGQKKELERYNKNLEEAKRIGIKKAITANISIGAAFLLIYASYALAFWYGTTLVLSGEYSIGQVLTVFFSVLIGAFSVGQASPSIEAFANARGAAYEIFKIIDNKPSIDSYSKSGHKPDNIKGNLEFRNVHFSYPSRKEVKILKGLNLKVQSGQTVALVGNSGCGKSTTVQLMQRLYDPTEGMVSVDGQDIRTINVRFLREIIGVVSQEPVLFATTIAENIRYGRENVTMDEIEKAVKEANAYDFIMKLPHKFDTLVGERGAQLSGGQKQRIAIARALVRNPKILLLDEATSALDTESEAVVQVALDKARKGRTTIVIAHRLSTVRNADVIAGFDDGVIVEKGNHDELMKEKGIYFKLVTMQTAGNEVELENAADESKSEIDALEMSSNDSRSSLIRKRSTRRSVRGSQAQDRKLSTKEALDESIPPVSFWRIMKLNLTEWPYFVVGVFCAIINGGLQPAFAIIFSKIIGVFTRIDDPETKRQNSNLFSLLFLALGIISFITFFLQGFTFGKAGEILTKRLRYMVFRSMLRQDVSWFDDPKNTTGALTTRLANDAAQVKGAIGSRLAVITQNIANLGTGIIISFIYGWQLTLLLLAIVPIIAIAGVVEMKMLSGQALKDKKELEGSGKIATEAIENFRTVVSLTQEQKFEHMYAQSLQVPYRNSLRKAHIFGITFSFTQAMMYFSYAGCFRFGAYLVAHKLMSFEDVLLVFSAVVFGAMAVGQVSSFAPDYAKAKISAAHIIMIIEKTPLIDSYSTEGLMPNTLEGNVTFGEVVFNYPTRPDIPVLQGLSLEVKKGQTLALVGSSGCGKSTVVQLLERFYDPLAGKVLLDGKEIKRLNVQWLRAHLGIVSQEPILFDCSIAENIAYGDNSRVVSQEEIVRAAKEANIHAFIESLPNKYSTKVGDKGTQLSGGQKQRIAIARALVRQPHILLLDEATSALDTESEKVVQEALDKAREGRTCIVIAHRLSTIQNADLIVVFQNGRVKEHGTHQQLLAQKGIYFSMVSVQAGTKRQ", "conditions": "cited from earlier work"}, "AF patients": {"system": "AF patients", "conditions": "followed for a year, versus placebo; cited from earlier work"}, "[3]": {"conditions": "2 years; 8 for the placebo; cited from earlier work"}, "[4]": {"assay": "Phase 2 clinical trial of tecarfarin: time in therapeutic INR range versus warfarin", "format": "in vivo, human", "conditions": "for proportion of time with INR below 1.5 / proportion of time with INR between 1.5 and 1.9: human, in vivo; for time in therapeutic range (TTR), INR between 2.0 and 3.0: same patient population, previously on warfarin"}, "patients with AF": {"system": "patients with AF", "conditions": "cited from earlier work"}}, "note": "Like-named read-outs stand apart in the source and are kept apart here."}
{"smiles": "CCN(CC)CCOc1c(I)cc(C(=O)c2c(CC(=O)O)oc3ccccc23)cc1I", "note": "[ATI-2000]", "values": [{"measurement": "electrophysiological activity", "setting": "[1]", "value": "electrophysiologically inactive"}]}
{"smiles": "[H]/N=C(/N)c1ccc(NCc2nc3cc(C(=O)N(CCC(=O)O)c4ccccn4)ccc3n2C)cc1", "note": "[dabigatran]", "values": [{"measurement": "major bleeding versus warfarin", "setting": "[2]; 110 mg", "value": "superior"}, {"measurement": "major bleeding versus warfarin", "setting": "[2]; 150 mg", "value": "noninferior"}, {"measurement": "P-gp substrate status", "setting": "P-glycoprotein (P-gp)", "value": "substrate"}]}
{"smiles": "CCCCc1oc2ccc(NS(C)(=O)=O)cc2c1C(=O)c1ccc(OCCCN(CCCC)CCCC)cc1", "note": "[dronedarone]", "values": [{"measurement": "time to first recurrence of AF (TTFR)", "setting": "AF patients", "value": "significant increase in TTFR compared to placebo"}, {"measurement": "number of strokes in patients with only AF or atrial flutter on all ECGs", "setting": "[3]", "value": 2}]}
{"smiles": "C=C[C@H]1C[N@@]2CC[C@H]1C[C@@H]2[C@@H](O)c1ccnc2ccc(OC)cc12", "note": "[quinidine]", "values": [{"measurement": "P-gp inhibition", "setting": "P-glycoprotein (P-gp)", "value": "particularly potent P-gp inhibitor"}]}
{"smiles": "CC(OC(=O)c1ccc(Cc2c(O)c3ccccc3oc2=O)cc1)(C(F)(F)F)C(F)(F)F", "note": "[tecarfarin]", "values": [{"measurement": "proportion of time with INR below 1.5", "setting": "[4]", "value": 1.2, "unit": "%"}, {"measurement": "proportion of time with INR between 1.5 and 1.9", "setting": "[4]", "value": 14.2, "unit": "%"}, {"measurement": "time in therapeutic range (TTR), INR between 2.0 and 3.0", "setting": "[4]", "value": 71.5, "unit": "%"}]}
{"smiles": "CC(=O)CC(c1ccccc1)c1c(O)c2ccccc2oc1=O", "note": "(centres unmarked) [warfarin]", "values": [{"measurement": "proportion of time with INR below 1.5", "setting": "[4]", "value": 3.9, "unit": "%"}, {"measurement": "proportion of time with INR between 1.5 and 1.9", "setting": "[4]", "value": 22.4, "unit": "%"}, {"measurement": "time in therapeutic range (TTR), INR between 2.0 and 3.0", "setting": "[4]", "value": 59.3, "unit": "%"}, {"measurement": "strokes prevented", "setting": "patients with AF", "value": 64, "unit": "%"}]}
